Patent US20080300303A1, “Substances and Pharmaceutical Compositions for the Inhibition of Glyoxalases and Their Use As Anti-Fungal Agents” (priority 2005, published 2008)
pIC50: −log10 of the molar value. Counter-ions that a name gives are not always drawn.

Key:
[1] = tested on: primary human skin fibroblasts; test: Vitality of primary human fibroblasts (dye exclusion count); type: cell-based; conditions: 1-50 mM, 24 hours, serum free medium, FIG. 7
Procedure: An identical number (10^4 cells per well) of primary human skin fibroblasts were inoculated in 24-well plates (Greiner, no. 662160) and were cultured in DMEM (Gibco; no. 41966-092) in the presence of 10% calf serum (Biochrom, S0113/5), 2 mM L-glutamine (Gibco; no. 25030-024), penicillin/streptomycin (100 units penicillin/ml; 100 μg streptomycin/ml, Gibco; no. 15140/122), 5 mg % ascorbic acid (Serva, no. 14030.02) at 37° C., 5% CO2 and 95% humidity. The primary human fibroblasts were prepared according to the instructions of Birkenmeier et al. (1998). After reaching 50% confluency the medium was by fresh serum free medium. Thereafter the following supplements were added to the cells: preparation 1 (equivalent volume of serum free (SF) medium, blank); preparation 2 (1 mM DEL or 1 mM LEL or 1 mM EP); preparation 3 (5 mM DEL or 5 mM LEL or 5 mM EP), preparation 4 (10 mM DEL or 10 mM LEL or 10 mM EP), preparation 5 (20 mM DEL or 20 mM LEL or 20 mM EP), preparation 6 (50 mM DEL or 50 mM LEL or 50 mM EP). The culture was continued at 37° C., 5% CO2 and 95% humidity for 24 hours. Thereafter the supernatants were removed and 100 μl of a 50% […] solution was added to the wells. After washing the cells with medium the unstained and stained cells were counted under the light optical microscope comprising a coordinate plane. Cells stained blue were assessed as avital, unstained cells as vital. The percentage of unstained cells of the total number of cells corresponds to the vitality of the cells.

yeast glyoxalase I = molecular target: T1, yeast glyoxalase I (Saccharomyces cerevisiae, UniProt P50107); test: Enzymatic activity of yeast glyoxalase I; type: biochemical; conditions: for Inhibition of the reaction of yeast glyoxalase I: increasing concentrations (FIG. 1-3; 0-30 mM in FIG. 3)
T1 construct: purchased Sigma G-4252
T1 sequence (P50107 1-326): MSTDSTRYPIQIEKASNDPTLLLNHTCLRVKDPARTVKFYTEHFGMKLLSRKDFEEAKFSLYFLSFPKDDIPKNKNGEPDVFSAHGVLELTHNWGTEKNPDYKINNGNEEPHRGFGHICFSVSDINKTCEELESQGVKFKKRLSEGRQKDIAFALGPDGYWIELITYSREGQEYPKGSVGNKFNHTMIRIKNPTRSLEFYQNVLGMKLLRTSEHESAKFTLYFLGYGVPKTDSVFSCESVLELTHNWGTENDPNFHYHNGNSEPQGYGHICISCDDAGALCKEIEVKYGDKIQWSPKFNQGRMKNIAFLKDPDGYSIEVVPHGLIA
Procedure: Measuring glyoxalase I (E.C.4.4.1.5, lactoyl-glutathione lyase Sigma, G-4252) was performed according to the instructions of McLellan and Thornalley (1989). The principle is based on measuring the initial rate of formation of S-D-lactoyl-glutathione from methylglyoxal (Sigma, M0252, 40%) and reduced L-glutathione (Aldrich, G-4251, >99%). The formation of the product is observed using the extinction coefficient e=2.86 mM−1 cm−1 at 240 nm. The measurement was performed in 50 mM sodium phosphate buffer, pH 7.0. For that purpose 2 mM methylglyoxal and 2 mM reduced glutathione were incubated for 2 minutes at 30° C. for the formation of the hemithioacetal. Thereafter 20 μl of a 1 to 1000 dilution of the glyoxalase I (Sigma, G-4252) was added to 1 ml of the measuring reagent to start the reaction.
Glyoxalase activity (IU) corresponds to the amount of enzyme forming 1 μmol of S-D-lactoyl-glutathione/min.
Determination of glyoxalase I activity was performed according to the general protocol as described above. The influence of ethyl pyruvate on enzyme activity was investigated by addition of increasing concentrations of EP (Sigma; no. E4,780-8; lot. S18972-513) to the measuring reagent.
Determination of glyoxalase I activity was performed according to the general protocol as described above. The influence of compounds of the general formula (I), (II), and (III) on the activity of the enzyme was investigated by addition of increasing concentrations of these compounds to the preparation. The IC50-values were calculated from inhibition curves of each compound.
Determination of glyoxalase I activity . . . was performed according to the general protocol as described above. The influence of 2-oxopropanethioic acid S-ethyl ester on the activity of the enzyme was investigated by addition of increasing concentrations of SE to the preparation for the measurement.
Determination of glyoxalase I activity was performed according to the general protocol as described above. The influence of effectors on the enzymatic activity was investigated by addition of increasing concentrations (0-30 mM) of EP (Sigma; no. E4,780-8; lot. S18972-513) (triangle), BP (prepared according to the instructions of patent JP 11080089; 98%) (circle) and BL (Fluka, 69819; lot. 443090/1 21503090) (squares) to the measuring reagent (FIG. 3).

[2] = tested on: Saccharomyces cerevisiae HD65-5a; test: Growth of yeast cells, O.D. at 600 nm; conditions: increasing concentrations, (FIG. 8, Table 5)
Procedure: A colony of strain HD 65-5a (Saccharomyces cerevisiae) was inoculated in 5 ml YPD-medium [(2% glucose (Fluka), 1% yeast extract (BD, Sparks), 2% peptone (BD, Sparks)] in a rotating 20 ml glass tube and was incubated overnight at 30° C. At an O.D. of 12.9 (580 nm) a starting density of O.D. 0.19 was adjusted by dilution with a culture medium.
The culture was aliquoted to 10 ml (in 20 ml glass tubes), and the respective test substances were added. The aliquots were incubated at 30° C. under continuous rotation of the tubes (200 U/min). At the indicated times, samples were removed and optical density was determined at a wavelength of 600 nm.
A colony of Saccharomyces strain HD65-5a was cultured as describe above.
After defined intervals 1 ml samples were removed and the O.D. was measured at 600 nm.
A colony of Saccharomyces strain HD65-5a was cultured as describe above. […] Samples of 1 ml were taken after 8 hours and were measured at 600 nm.

[3] = tested on: fluconazole resistant Candida albicans strain A435 5; test: Growth of fluconazole resistant Candida albicans, O.D. at 600 nm; type: cell-based
Procedure: A colony of the fluconazole resistant Candida albicans strain A435 5 was cultured in the same medium and under the same conditions as used for Saccharomyces HD65-5a.
At an O.D. of 14.4 (600 nm) a starting density of O.D. 0.20 was set by dilution with culture medium.
(§1) Samples of 1 ml were taken after 5 hours and the O.D. at 600 nm was determined as a standard for the cell number. The resistance against fluconazole was determined according to the guidelines of NCCLS (1997). Resistance is defined as growth at a dosage of a ≧64 μg/ml of fluconazole.

[4] = tested on: fluconazole sensitive Candida albicans strain R/HO13; test: Growth of fluconazole sensitive Candida albicans, O.D. at 600 nm; type: cell-based
Procedure: A colony of the fluconazole sensitive Candida albicans strain R/HO13 was cultured as described above. […] Samples of 1 ml were taken after 9 hours and the O.D. was measured at 600 nm.

yeast glyoxalase II = test: Enzymatic activity of yeast glyoxalase II (cell free extract); type: biochemical, Saccharomyces cerevisiae; conditions: 0-20 mM, FIG. 4
Procedure: Protein concentration of the cell free extract was determined according to the Bradford method (Bradford, 1976).
The activity of the glyoxalase II (Hydroxyacyl glutathione hydrolase, E.C. 3.1.2.6.) was determined according to the instructions of Martins et al. (1999) in 0.1 M MES buffer, pH 6.5, 1.5 mM S-D-lactoyl-glutathione (L7140, Sigma-Aldrich Chemistry GmbH) and 0.75 mM DTNB (Sigma, D8130). After addition of suitable amounts of cell extract and an incubation period of 15 min at 25° C. the formation of glutathione was measured at 412 nm (ε=13.6 mM^−1 cm^−1). The activity of the glyoxalase II (IU) correlates with the amount of enzyme hydrolysing 1 μmol of S-D-lactoyl-glutathion/min.
The influence of ethyl pyruvate on the activity of the enzyme was investigated by adding increasing concentrations of EP (Sigma, No. E4,780-8; Lot. S18972-513) (0-20 mM) to the measurement reagent.

[5] = molecular target: T2, glyoxalase I of human erythrocytes (Homo sapiens, UniProt Q04760); test: Enzymatic activity of human erythrocyte glyoxalase I; type: biochemical; conditions: 0-50 mM, FIG. 5
T2 construct: from tissue; host or cells: human erythrocyte lysate
T2 sequence (Q04760 2-184 limits assumed): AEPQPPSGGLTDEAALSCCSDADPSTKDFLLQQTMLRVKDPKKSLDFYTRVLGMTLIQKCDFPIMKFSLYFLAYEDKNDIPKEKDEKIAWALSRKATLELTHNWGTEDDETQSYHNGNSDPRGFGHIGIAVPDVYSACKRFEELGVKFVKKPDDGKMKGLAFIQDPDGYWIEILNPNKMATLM
Procedure: The determination of glyoxalase I was performed as described above for the yeast enzyme. After the formation of the hemithioacetal, suitable amounts (5 to 100 μl) of an erythrocyte lysate were added to 1 ml of the measuring reagent to start the reaction. The erythrocyte lysate was prepared according to the instructions of Mannervik et al. (1982).
Glyoxalase activity (IU) corresponds to the amount of enzyme forming […] of S-D-lactoyl-glutathione/min.
Determination of glyoxalase I activity was performed according to the general protocol as described above. The influence of ethyl pyruvate on enzyme activity was investigated by addition of increasing concentrations of EP (Sigma; no. E4,780-8; lot. S18972-513) (0-50 mM) to the measuring reagent.

[6] = molecular target: T3, glyoxalase II of human erythrocytes (Homo sapiens, UniProt Q16775); test: Enzymatic activity of human erythrocyte glyoxalase II; type: biochemical; conditions: 0-20 mM, FIG. 6
T3 construct: from tissue; host or cells: human erythrocyte hemolysate
Procedure: The determination of erythrocyte glyoxalase II (E.C.3.1.2.6., hydroxyacyl glutathione hydrolase) was performed according to the instructions of McLellan and Thornalley (1989). The principle is based on determining the initial hydrolysis of S-D-lactoyl-glutathione (L 7140, Sigma—Aldrich Chemie GmbH) in the presence of low amounts of a cell extract. Hydrolysis is observed on the basis of the reduction of the extinction at 240 nm (e=−3.1 mM−1 cm−1). Glyoxalase II activity (IU) correlates to the amount of enzyme hydrolysing 1 μmol of S-D-lactoyl-glutathione/min. The measurement was performed in 100 mM Tris-HCl buffer, pH 7.4. For this purpose 0.4 mM S-D-lactoyl-glutathione was added to 1 ml of the measuring reagent and the reaction was started by addition of suitable amounts (5-100 μl) of an erythrocyte hemolysate. The erythrocyte lysate was prepared according to the instructions of Mannervik et al. (1982).
Determination of glyoxalase II activity was performed according to the general protocol as described above. The influence of ethyl pyruvate on the activity of the enzyme was investigated by addition of increasing concentrations of EP (Sigma, no. E 4,780-8; lot. S18972-513) (0-20 mM) to the measuring reagent.

[7] = tested on: Candida albicans, Candida krusei, Candida tropicalis, Candida glabrata, Candida parapsilosis; test: Agar dilution antimicrobial susceptibility test; type: cell-based, Candida spp.; conditions: 12.5 mM to 40 mM in agar, 37° C., 20 hours, FIG. 9
Procedure: Control agar plates were prepared without EP.

Candida albicans [8] = test: Mouth lavage in a patient suffering from candidiasis; type: in vivo; conditions: lavage 10 ml 75 mM ethyl pyruvate, 1% glucose in saline, 3 times daily over 4 days
Procedure: A patient with a diagnosis of diabetes mellitus (presenting with a fasting blood sugar level of 6.88 mM) complained about dryness in the mouth, chapped lips and white blotchy alterations of the oral mucosa.

Candida albicans [9] = test: Fluconazole susceptibility according to NCCLS guidelines; type: cell-based
Procedure: as §1
The strain was sensitive against fluconazole at a dosage of ≦0.13 μg/ml.

| SMILES | Toxicity / vitality of primary human fibroblasts [1] | Inhibition of the reaction of yeast glyoxalase I (yeast glyoxalase I) | pIC50 (yeast glyoxalase I) | Inhibition of growth of fluconazole resistant Candida albicans cells [3] | also measured |
| --- | --- | --- | --- | --- | --- |
| CCOC(=O)[C@@H](C)O [(+)-Ethyl D-Lactate] | not toxic |  |  |  |  |
| CCCCOC(=O)[C@H](C)O [(−)-Butyl L-Lactate] |  | does not influence |  |  |  |
| CCOC(=O)[C@H](C)O [(−)-Ethyl L-Lactate] | not toxic |  |  |  | Inhibition of growth of yeast cells [2]: did not influence growth |
| CCCCOC(=O)C(C)=O [Butyl pyruvate] |  | inhibit | 2.12 | inhibit | Inhibition of growth of fluconazole sensitive Candida albicans cells [4]: inhibit; Inhibition of growth of yeast cells [2]: inhibit |
| CCOC(=O)C(=O)OCC [Diethyl oxalate, reference compound] |  |  | < 1.30 |  |  |
| CCOC(=O)C(=O)CC [Ethyl 2-oxobutyrate] |  |  | 2.74 | inhibit |  |
| CCOC(=O)C(C)=O [Ethyl pyruvate] | not toxic |  | 2.00 | inhibit | Inhibition of the reaction of yeast glyoxalase I (yeast glyoxalase I; listed as EP): inhibit; Inhibition of the reaction of yeast glyoxalase II (yeast glyoxalase II): inhibits; Inhibition of the reaction of glyoxalase I of human erythrocytes [5]: inhibits; Inhibition of the reaction of glyoxalase II of human erythrocytes [6]: inhibits; Inhibition of growth of fluconazole sensitive Candida albicans cells [4]: inhibit; Inhibition of growth and proliferation of different fungi (1-7) [7]: effectively inhibits; Reduction of germ number in lavage of the oral cavity (Candida albicans [8]): < 5%; Inhibition of growth of yeast cells ([2]; listed as EP): inhibit |
| COC(=O)C(C)=O [Methyl pyruvate] |  |  | 1.82 |  |  |
| CCSC(=O)C(C)=O [SE, 2-Oxopropanethioic acid S-ethyl ester] |  | inhibits |  |  |  |
| OC(Cn1cncn1)(Cn1cncn1)c1ccc(F)cc1F [fluconazole] |  |  |  |  | Fluconazole dosage at which growth defines resistance (Candida albicans [9]; strain A435 5, NCCLS (1997)): ≥ 64 µg/mL; Fluconazole dosage at which the strain was sensitive (Candida albicans [9]; strain R/HO13): ≤ 0.13 µg/mL |
